Reference: the NIST ThermoML archive (doi:10.1016/j.fluid.2005.05.023)

Assay: xn = mol fraction of the nth substance listed
Conditions: Liquid, Vibrating tube method

Cc1ccccc1 [toluene] + CCO
mass density [kg/m3]
Conditions	100 kPa	5000 kPa	10000 kPa	15000 kPa	20000 kPa	25000 kPa	30000 kPa	35000 kPa	40000 kPa	45000 kPa
313.15 K, x2 = 0.625	–	–	–	–	–	–	–	–	–	846
313.15 K, x2 = 0.75	–	–	–	–	–	–	–	–	–	835.8
313.15 K, x2 = 0.875	–	–	–	–	–	–	–	–	–	823.2
323.15 K, x2 = 0	838.6	843	847.2	851.3	855.2	858.9	862.5	866	869.4	872.6
323.15 K, x2 = 0.125	832.1	836.5	840.8	845	848.9	852.7	856.3	859.9	863.3	866.5
323.15 K, x2 = 0.25	825.8	830.3	834.7	838.9	842.9	846.7	850.4	853.9	857.3	860.6
323.15 K, x2 = 0.375	819.1	823.6	828	832.3	836.3	840.2	843.8	847.4	850.9	854.2
323.15 K, x2 = 0.5	811.3	815.9	820.4	824.7	828.8	832.6	836.4	840	843.4	846.7
323.15 K, x2 = 0.625	802.5	807.1	811.6	815.9	820	824	827.7	831.3	834.8	838.1
323.15 K, x2 = 0.75	792.1	796.8	801.3	805.7	809.8	813.8	817.5	821.2	824.7	828.1
323.15 K, x2 = 0.875	779.3	784.1	788.7	793.1	797.3	801.3	805.1	808.8	812.3	815.7
333.15 K, x2 = 0	828.8	833.5	838	842.3	846.4	850.4	854.2	857.9	861.4	864.8
333.15 K, x2 = 0.125	822	826.7	831.4	835.8	839.9	843.9	847.8	851.5	855.1	858.5
333.15 K, x2 = 0.25	815.6	820.4	825.1	829.5	833.7	837.8	841.7	845.4	849	852.5
333.15 K, x2 = 0.375	808.8	813.6	818.4	822.9	827.1	831.2	835.1	838.9	842.5	846
333.15 K, x2 = 0.5	801.2	806.1	810.8	815.4	819.7	823.8	827.7	831.5	835.1	838.6
333.15 K, x2 = 0.625	792.3	797.2	802.1	806.7	811	815.2	819.1	822.9	826.6	830.1
333.15 K, x2 = 0.75	782	787	791.9	796.5	800.9	805.1	809.1	812.9	816.6	820.1
333.15 K, x2 = 0.875	769.5	774.6	779.5	784.2	788.7	792.9	796.9	800.7	804.4	808
343.15 K, x2 = 0	819.2	824.1	829	833.5	837.9	842.1	846	849.9	853.5	857
343.15 K, x2 = 0.125	811.9	817	821.9	826.6	831.1	835.3	839.3	843.2	846.9	850.5
343.15 K, x2 = 0.25	805.3	810.5	815.5	820.3	824.8	829	833.1	837	840.8	844.4
343.15 K, x2 = 0.375	798.5	803.7	808.8	813.6	818.1	822.4	826.5	830.5	834.2	837.9
343.15 K, x2 = 0.5	790.7	796	801.1	806	810.6	814.9	819	823	826.8	830.5
343.15 K, x2 = 0.625	781.9	787.3	792.5	797.4	802	806.3	810.5	814.5	818.3	822
343.15 K, x2 = 0.75	771.8	777.2	782.5	787.4	792	796.4	800.6	804.6	808.5	812.2
343.15 K, x2 = 0.875	759.6	765	770.3	775.3	780	784.4	788.6	792.7	796.5	800.2
353.15 K, x2 = 0	809.4	814.7	819.9	824.7	829.3	833.7	837.9	841.9	845.7	849.4
353.15 K, x2 = 0.125	801.7	807.2	812.5	817.4	822.2	826.7	830.9	835	838.9	842.7
353.15 K, x2 = 0.25	–	800.4	805.8	810.9	815.6	820.2	824.5	828.6	832.6	836.4
353.15 K, x2 = 0.375	–	793.4	798.9	804	808.8	813.4	817.8	821.9	825.9	829.7
353.15 K, x2 = 0.5	–	785.7	791.3	796.4	801.3	805.9	810.3	814.5	818.5	822.3
353.15 K, x2 = 0.625	–	777	782.6	787.9	792.8	797.4	801.8	806	810	813.9
353.15 K, x2 = 0.75	–	767.1	772.7	778	782.9	787.6	792	796.3	800.3	804.2
353.15 K, x2 = 0.875	–	755.1	760.8	766.1	771.1	775.8	780.3	784.5	788.6	792.4
